Legend:
Assay type in all cases: in vivo
[1] = test system: diamondback moth (Plutella xylostella); assay: Test A: control of diamondback moth on radish plant, foliar spray; details: sprayed at 50 ppm; neonate larvae on radish plant; held 6 days at 25° C.; three replicates
Description: For evaluating control of diamondback moth (Plutella xylostella), the test unit consisted of a small open container with a 12-14-day-old radish plant inside. This was pre-infested with about 50 neonate larvae that were dispensed into the test unit via corn-cob grits using a bazooka inoculator. The larvae moved onto the test plant after being dispensed into the test unit.
(§1) Test compounds were formulated using a solution containing 10% acetone, 90% water and 300 ppm X^77™ Spreader Lo-Foam Formula non-ionic surfactant containing alkylarylpolyoxyethylene, free fatty acids, glycols and isopropanol (Loveland Industries, Inc. Greeley, Colo., USA). The formulated compounds were applied in 1 mL of liquid through a SUJ2 atomizer nozzle with 1/8 JJ custom body (Spraying Systems Co. Wheaton, Ill., USA) positioned 1.27 cm (0.5 inches) above the top of each test unit. All experimental compounds in this test were sprayed at 50 ppm, and the test was replicated three times. After spraying of the formulated test compound, each test unit was allowed to dry for 1 h and then a black, screened cap was placed on top. The test units were held for 6 days in a growth chamber at 25° C. and 70% relative humidity. Plant feeding damage was then visually assessed based on foliage consumed and a pest mortality rating was also counted and calculated for each test unit.

[2] = test system: fall armyworm (Spodoptera frugiperda); assay: Test B: control of fall armyworm on corn (maize) plant, foliar spray; details: sprayed at 50 ppm; 1-day-old larvae on corn (maize) plant; three replicates
Experimental: as §1
For evaluating control of fall armyworm (Spodoptera frugiperda), the test unit consisted of a small open container with a 4-5-day-old corn (maize) plant inside. This was pre-infested (using a core sampler) with 10-15 1-day-old larvae on a piece of insect diet. Test compounds were formulated and sprayed at 50 ppm as described for Test A, and the test was replicated three times. After spraying, the test units were maintained in a growth chamber and then the control efficacy was rated for each test unit as described for Test A.

[3] = test system: potato leafhopper (Empoasca fabae); assay: Test C: control of potato leafhopper through contact and/or systemic means on Soleil bean plant; details: 144 h, sprayed at 250 ppm, adults on Soleil bean plant, held 6 days at 19-21° C., three replicates, read-out: control efficacy: mortality
Experimental: as §1
For evaluating control of potato leafhopper (Empoasca fabae) through contact and/or systemic means, the test unit consisted of a small open container with a 5-6-day-old Soleil bean plant (primary leaves emerged) inside. White sand was added to the top of the soil and one of the primary leaves was excised prior to application. Test compounds were formulated and sprayed as described for Test A. All experimental compounds in these tests were sprayed at 250 ppm, and the test was replicated three times. After spraying, the test units were allowed to dry for 1 hour before they were post-infested with 5 potato leafhoppers (18-21-day-old adults). A black, screened cap was placed on the top of the cylinder. The test units were held for 6 days in a growth chamber at 19-21° C. and 50-70% relative humidity. The control efficacy of each test unit was then visually assessed by the insect mortality.

[4] = test system: green peach aphid (Myzus persicae); assay: Test E: control of green peach aphid through contact and/or systemic means on radish plant; details: 144 h, sprayed at 250 ppm, aphids on radish plant, held 6 days at 19-21° C., three replicates, read-out: control efficacy: mortality
Experimental: Test compounds were formulated using a solution containing 10% acetone, 90% water and 300 ppm X^77™ Spreader Lo-Foam Formula non-ionic surfactant containing alkylarylpolyoxyethylene, free fatty acids, glycols and isopropanol (Loveland Industries, Inc. Greeley, Colo., USA). The formulated compounds were applied in 1 mL of liquid through a SUJ2 atomizer nozzle with 1/8 JJ custom body (Spraying Systems Co. Wheaton, Ill., USA) positioned 1.27 cm (0.5 inches) above the top of each test unit. All experimental compounds in this test were sprayed at 50 ppm, and the test was replicated three times. After spraying of the formulated test compound, each test unit was allowed to dry for 1 h and then a black, screened cap was placed on top. The test units were held for 6 days in a growth chamber at 25° C. and 70% relative humidity. Plant feeding damage was then visually assessed based on foliage consumed and a pest mortality rating was also counted and calculated for each test unit. […]
Test compounds were formulated and sprayed as described for Test A. All experimental compounds in these tests were sprayed at 250 ppm, and the test was replicated three times. […] Each test unit was then visually assessed for insect mortality.

[5] = test system: silverleaf whitefly (Bemisia tabaci); assay: Test F: control of silverleaf whitefly on cotton plant; details: 144 h, sprayed at 250 ppm, 2nd and 3rd instar nymphs on cotton plant, held 6 days, three replicates, read-out: control efficacy: mortality
Experimental: For evaluating control of silverleaf whitefly (Bemisia tabaci), the test unit consisted of a 14-21-day-old cotton plant grown in Redi-earth® media (Scotts Co.) with at least two true leaves infested with 2nd and 3rd instar nymphs on the underside of the leaves.
Test compounds were formulated in no more than 2 mL of acetone and then diluted with water to 25-30 mL. The formulated compounds were applied using a flat fan air-assisted nozzle (Spraying Systems 122440) at 10 psi (69 kPa). Plants were sprayed to run-off on a turntable sprayer (patent publication EP-1110617-A1). All experimental compounds in this screen were sprayed at 250 ppm, and the test was replicated three times. After spraying of the test compound, the test units were held for 6 days in a growth chamber at 50-60% relative humidity and 28° C. daytime and 24° C. nighttime temperature. Then the leaves were removed and then dead and live nymphs were counted to calculate percent mortality.

[6] = test system: western flower thrip (Frankliniella occidentalis); assay: Test D: control of western flower thrip through contact and/or systemic means on Soleil bean plant; details: sprayed at 250 ppm; adult thrips on Soleil bean plant; held 6 days at 25° C.; three replicates
Experimental: as §1
For evaluating control of the western flower thrip (Frankliniella occidentalis) through contact and/or systemic means, the test unit consisted of a small open container with a 5-7-day-old Soleil Bean plant inside. […] A mortality rating was assessed along with a plant damage rating for each test unit.

SMILES	control efficacy (20% or less feeding damage or 80% or more mortality) [1]	control efficacy (20% or less feeding damage or 80% or more mortality) [2]	mortality at 250 ppm [3]	mortality at 250 ppm [4]	mortality at 250 ppm [5]	control efficacy (20% or less feeding damage or 80% or more mortality) [6]
O=C(NCc1ccc(C2=NOC(c3cc(Cl)cc(Cl)c3)(C(F)(F)F)C2)c2ccccc12)C1CC1 (stereo not shown) [Compound 1, N-[[4-[5-(3,5-dichlorophenyl)-4,5-dihydro-5-(trifluoromethyl)-3-isoxazolyl]-1-naphthalenyl]methyl]cyclopropanecarboxamide]	very good to excellent levels of control efficacy	very good to excellent levels of control efficacy	≥ 80%	–	–	–
CC(C)C(=O)NCc1ccc(C2=NOC(c3cc(Cl)cc(C(F)(F)F)c3)(C(F)(F)F)C2)c2ccccc12 (stereo not shown) [Compound 5]	very good to excellent levels of control efficacy	very good to excellent levels of control efficacy	≥ 80%	≥ 80%	≥ 80%	–
O=C(NCc1ccc(C2=NOC(c3cc(Cl)cc(C(F)(F)F)c3)(C(F)(F)F)C2)c2ccccc12)C1CC1 (stereo not shown) [Compound 6]	very good to excellent levels of control efficacy	very good to excellent levels of control efficacy	≥ 80%	–	–	–
N#CC(NC(=O)C1CC1)c1ccc(C2=NOC(c3cc(Cl)cc(Cl)c3)(C(F)(F)F)C2)c2ccccc12 (stereo not shown) [Compound 3]	very good to excellent levels of control efficacy	–	–	–	–	very good to excellent levels of control efficacy
CC(C)C(=O)NC(C)c1ccc(C2=NOC(c3cc(C(F)(F)F)cc(C(F)(F)F)c3)(C(F)(F)F)C2)c2ccccc12 (stereo not shown) [Compound 4]	very good to excellent levels of control efficacy	–	–	–	–	–
CC(C)C(=O)NCc1ccc(C2=NOC(c3cc(Cl)cc(Cl)c3)(C(F)(F)F)C2)c2ccccc12 (stereo not shown) [Compound 2]	very good to excellent levels of control efficacy	very good to excellent levels of control efficacy	≥ 80%	≥ 80%	≥ 80%	–
